Laboratory results published in patent US7030087B2, “Synthetic approach to designed chemical structures” (priority 1996, dated 2006).

Legend:
[1] = tested on: P. aeruginosa; experiment: Bactericidal activity assay; assay type: cell-based, Pseudomonas aeruginosa type 1
Outline: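 Log-phase P. aeruginosa type 1 (smooth clinical isolate) was grown in brain heart infusion broth, washed, and diluted 1:10 from about 3×10^8 CFU/ml into 0.08M citrate phosphate buffer at pH 5.6 or pH 7.0. Peptides were tested from about […] to 4.1×10^−9M, with LD50 derived from dose response by linear regression.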

[2] = tested on: ICAM-1; experiment: ICAM-1 expression on endothelial cells (immunofluorescence, FACScan); assay type: cell-based, human
Protocol: In a first series of experiments, PF4 and βpep peptides were tested for their ability to prevent bFGF (fibroblast growth factor) mediated downregulation of ICAM-1. […] Simultaneously 100 μg/ml of each PF4, βpep-14, βpep-16, or medium was added. Mean ICAM-1 fluorescence intensity values were determined.
Since the in vivo situation of tumor associated EC involves the low expression or even absence of ICAM-1, the next set of experiments aimed to study the ability to reinduce ICAM-I expression after bFBF preincubation. […] In these experiments, HUVEC were pretreated for 3 days with bFGF, subsequently PF4 was added for 3 days and, where indicated in the last 16 hours of culture 4 ng/ml TNFα was added. Human umbilical vein derived endothelial cells (HUVEC) were harvested from normal human umbilical cords by perfusion with 0.125% trypsin/EDTA as described previously. Cells were cultured in fibronectin (FN) coated tissue culture flasks in culture medium (RPMI-1640 with 20% human serum (HS), supplemented with 2 mM glutamine and 100 U/ml penicillin and 0.1 mg/ml streptomycin). Immunofluorescence using indirect PE-conjugated reagents required three separate incubations. 1×10^5 EC were fixed for 1 hour in 1% paraformaldehyde, resuspended in 20 μl appropriately diluted Mab and incubated for 1 hour on ice. Subsequently, cells were washed two times in PBS/BSA (0.1%) and incubated for another 30 minutes with biotinylated rabbit-anti-mouse Ig (Dako, Glostrup, Denmark). After another 2 washings, cells were incubated with streptavidin-phycoerythrin conjugate (Dako). Stained cells were analyzed on a FACScan flowcytometer. Data analysis was performed using PCLysys software (Becton Dickinson, Mountain View, Calif.). Statistical significance of observed differences was determined using the Student's t-test.
The energy of EC to stimulation with inflammatory cytokines was the subject of a next series of experiments. For these experiments, HUVEC (human vascular endothelial cells) were pretreated with 10 ng/ml bFGF for 3 days. Subsequently, cells are subcultured for 3 days with […] in the presence of PF4. For the last 16 hours of the culture 4 ng/ml TNFα was added to induce upregulation of ICAM-1. […] The regulation of ICAM-1 at the protein level was confirmed in Northern blot analysis for detection of ICAM-1 message. In these experiments, HUVEC were cultured for 3 days with bFGF and treated for the last 4 and 24 hours with PF4 (100 μg/ml). TNFα was added 2 hours before isolation of RNA. RNA from a subconfluent EC cultures (75 cm^2 Petri-dishes) incubated with bFGF for different time-points was isolated using an RNA-zol kit (Campro Scientific, Houston, Tex.). Total RNA (10 μg) for each sample was separated in a 0.8% formaldehyde-denaturing gel, transferred to nitrocellulose (Hybond N+, Amersham International, Amersham, UK) and hybridized to a ^32P-labelled 1.9 Kb c-DNA probe, containing the functional sequence of the human ICAM-1 gene (a gift from Dr. B. Seed). Membranes were washed at a high stringency in 0.2×SSC, 0.1% SDS at 50° C. for 1 hour. Filters were exposed to X-ray films (Kodak X-omat, Eastman Kodak Company, Rochester, N.Y.) using an intensifying screen at −80° C. for not less than 12 hr. Autoradiograms were subjected to scanning using a laser densitometer (Model GS670, Bio-Rad, Hercules, Calif.) and data were analysed with the Molecular Analyst PC™ software. The intensity of the major ICAM-1 mRNA transcript was normalized with respect to actin mRNA expression used as a control.

[3] = tested on: HUVEC; experiment: Leukocyte/EC adhesion assay; assay type: cell-based, human; details: bFGF 10 ng/ml + PF4 100 μg/ml
Protocol: Functional impact for the observed phenomena was provided by leukocyte/EC adhesion assays as described earlier (Griffioen et al. Cancer Res. 56:1111–1117, 1996). […] TNF mediated upregulation of adhesion to bFGF preincubated HUVEC in the presence of PF4 was similar to the adhesion to TNF treated control cells. PHA-activated peripheral blood T lymphocyte were adhered for 1 hour at 37° C. to TNF-α (4 ng/ml), bFGF (10 ng/ml)+PF4 (100 μg/ml) treated, or control (HUVEC). Non-adhering cells were removed and adhered cells were enumerated by an inverted microscope. Values of one representative experiment out of three are expressed as numbers of adhered cells per high power field. Statistical significance is determined by the Student's t-test.

platelet factor 4 [PF4]
Bactericidal Activity, % killing ([1]; 1.2 × 10^−7 M Peptide, 5 × 105 P. aeruginosa): 0% | Bactericidal Activity, % killing at the effective dose ([1]; at the Ed for the same peptide): 19% | Bactericidal Activity, Ed, Effective M dose ([1]; dose at which the % in brackets was found): 1.5 µM | bFGF mediated downregulation of ICAM-1 (in words) ([2]; 10 ng/ml bFGF for 3 days, 100 μg/ml added simultaneously): did not result in the loss of ICAM-1 expression | expression of ICAM-1 (in words) ([2]; 100 μg/ml, without bFGF): enhanced the expression of ICAM-1 | decreased inflammatory response (TNFα upregulation of ICAM-1) of angiogenic stimulated EC (in words) ([2]; HUVEC 3 days 10 ng/ml bFGF, then 3 days with bFGF and test agent, 4 ng/ml TNFα last 16 hours): overcome | reinduction of ICAM-1 expression after bFGF preincubation (in words) ([2]; HUVEC pretreated 3 days with bFGF, then 100 μg/ml for 3 days in the presence of bFGF): reinduction of ICAM-1 | bFGF mediated inhibition of leukocyte adhesion to cultured HUVEC (in words) [3]: completely abolished
